Test results published in patent US10714208B2, “Computer systems for treating diseases” (Biotempus Limited, priority 2009, dated 2020).

System: metastatic melanoma
Assay: Pilot clinical study: temozolomide chemotherapy timed relative to the CRP oscillation cycle
Assay type: in vivo, human
Procedure: A pilot clinical study was conducted on 12 patients with metastatic melanoma (median age 61; 4 female; 7 with M1c disease) at The Mayo Clinic, Rochester, Minn., USA headed by Dr Svetomir Markovic. Serial CRP measurements were taken every 2-3 days for 2 weeks. The CRP oscillation cycle was identified by analysis of the raw data without any computer aided modelling, and chemotherapy with temozolomide (200 mg/m2 for 5 days, every 28 days) was initiated. Patients were evaluated for clinical and immune response endpoints every 8 weeks until progression.

Cn1nnc2c(C(N)=O)ncn2c1=O [temozolomide]
time to progression (the other patients, treated post CRP-peak): < 5 months
remain progression-free (two patients with metastatic melanoma treated in the pre-peak section of the CRP cycle, temozolomide 200 mg/m2 for 5 days, every 28 days): > 2 years
